According to patent publication US20120070377A1, “COMPOUNDS AND BIOLOGICAL MATERIALS AND USES THEREOF” (priority 2009, published 2012):
“Also recorded” adds a separate entry of the source. Read-outs that look alike come from different tables or passages of the source.

Key:
[1] = Photophysical parameters of the photosensitisers; assay type: physicochemical; details: for φΔ, singlet oxygen quantum yield: determined vs. PPa in toluene (0.5), 10% error; for φf, fluorescence quantum yield: determined vs. PPa in toluene (φf = 0.3), 5% error
KB = assay: In vitro phototoxicity (MTS cell titre assay after 670 nm laser light), Example 5; assay type: cell-based, human; details: free photosensitisers, 2 hrs incubation, 670 nm laser 0.5 W 10 s, MTS after 48 h
Procedure: (§1) Two different human-derived tumour cell lines: SKOV3 and KB were obtained from the European Collection of Cell Cultures (ECACC) and cultured in Dulbecco's modified Eagle's medium (DMEM) with 10% foetal bovine serum, penicillin and streptomycin antibiotics (1%) and passaged when 70-90% confluent in 75 cm^2 flasks. The cells were maintained at 37° C. in a humidified 5% CO2 atmosphere.
(§2) Cells were trypsinised and seeded at 2×10^3 cells/well for KB and 3×10^3 cells/well for SKOV3 into 96-well plates and incubated over two nights for KB and overnight for SKOV3 at 37° C. and 5% CO2. The cells were then washed once in phenol red free DMEM and appropriately diluted photosensitiser solution or photo-immunoconjugate (in DMEM, 2% DMSO) was added to the appropriate wells under subdued lighting. DMEM or Triton X-100 (1%) were added to control wells. After 2 hrs incubation in the dark at 37° C., 5% CO2, cells were washed three times with PBS and 100 μl of DMEM was added to each well.
(§3) Wells were exposed to light from a High Powered-Devices 670 nm laser used at 0.5 W for 10 s. Controls included wells with photosensitiser added and no exposure to light, or DMEM added and exposure to light as well as Triton X-100 (1%) with or without light exposure. Cells that had no photosensitiser added and no exposure to light were included as overall controls. Cells were incubated in the dark at 37° C., 5% CO2 for 48 h after which time, a cell titre assay was performed according to the manufacturer's instructions. The Promega Cell Titre-96 system was used which involves the conversion by live cells of a tetrazolium compound (MTS) into a formazan dye which is measurable by its absorbance at 490 nm.

SKOV3 = assay: as above; assay type: cell-based, human; details: free photosensitisers, 2 hrs incubation, 670 nm laser 0.5 W 10 s, MTS after 48 h
Procedure: as §1, §2, §3

[2] = Biodistribution and blood clearance of 125I-radiolabelled photosensitisers and PICs in SKOV3 tumour mice; assay type: in vivo, BALB/c nude mice; details: for blood clearance: iv, radiolabelled, 1-24 hr, SKOV3 tumour mice
Procedure: 0.1 mg of photosensitiser was dissolved in 0.5 ml PBS. Radiolabelled Iodine (Na^125I, ICN chemicals) was added to 0.1 ml of PBS in Iodogen-coated tubes (Pierce chemicals) and allowed to activate. The activated iodine-125 was transferred to the photosensitiser and allowed to react for 5-10 minutes at room temperature. The radiolabelled photosensitiser was separated from free iodine on a mini silica gel column eluting with 100% PBS to remove the iodinating agent followed by a gradual switch from 10% MeOH/PBS to 100% MeOH with the radiolabelled photosenstiser eluting with 10% MeOH/chloroform. The radiolabelled solutions of the photosensitiser was allowed to air-dry and re-suspended in PBS containing 2% DMSO.
(§4) Female BALB/c nude mice (aged 6-8 weeks old) were implanted with 10^7 SKOV3 tumour cells mixed in 0.1 ml of ice-cold matrigel subcutaneously and the tumours were allowed to grow for 3-6 weeks as xenografts. Mice were maintained in IVC cages (individually-vented cages) in a clean room. Samples were injected in a volume of 0.1 ml, intravenously via the lateral tail vein and the mice were maintained in low light with full food and water (irradiated). At various time points (1-24 hr), mice were culled by cardiac puncture under terminal anesthesia and blood and tissues collected. All the tissues were counted for radioactivity by gamma counting and weighed.
The results are shown as a percentage of radioactive material injected per gram of tissue.
(§5) The PS (PPa and PPa-PEG) were chemically coupled to C6 scFv, radiolabelled with iodogen as before, but dialysed against 3×5 L of PBS to remove the free iodine and injected into BALB/c nude mice with SKOV3 tumours as above. Tissues were dissected and counted as above.

SKOV3 tumour = assay: Tumour uptake and tumour:blood ratio of radiolabelled photosensitisers and PICs; assay type: in vivo, BALB/c nude mice; details: % of the injected dose/g of tumour tissue
Procedure: as §4, §5
The tumours were counted for radioactivity and expressed as % of the injected dose/g of tumour tissue (FIG. 10).
The percentage PS in the tumour was divided by the percentage in the blood (gram for gram) to give a targeting or tumour:blood ratio (the higher the better). This plotted in FIG. 11. A high tumour:blood ratio means that there is more in the tumour compared to the blood (and other tissues). This is a function of tumour uptake and blood clearance (see FIGS. 9 and 10).

SKOV3 cells = assay: Confocal fluorescence microscopy, intracellular localisation with organelle co-stains; assay type: cell-based, human; details: for golgi localisation (co-localisation with Bodipy ceramide): FIG. 20; for mitochondrial localisation (co-localisation with Mito-tracker): FIG. 21; for lysosomal localisation (co-localisation with Lyso-tracker): FIG. 22
Procedure: Imaging took place at the FILM Imperial College London on a LEICA SP5 MP inverted confocal microscope, at 37° C. and under a CO2 supplemented atmosphere. The water objective (63×) was used in all the experiments. Images were processed using the Leica software, Image J and Powerpoint.
Note: in any experiment where a photosensitiser is used on cells, the experiment is done under subdued lighting exposing the cells to as little light as possible and incubating wrapped in foil. Following addition of PS to cells, cells were no longer observed on the microscope.
Cells were plated on a Labt-Tek® 8 Chambered #1.0 Borosilicate Coverglass System. With some cell lines, it is often useful to use an attachment factor (200 μl, 30 mins, 37° C.) to coat the wells first.
Photosensitiser solutions in phenol red free DMEM (10% FBS, 1% P/S, 0.5% DMSO) were prepared fresh and pre-warmed to 37° C. for 15 mins. The cells were washed with media (1×200 μl) before adding the solutions (200 μl per chamber). Unless otherwise stated, the cells were grown over 20 hrs in a humidified atmosphere (37° C., 5% CO2). The cells were washed (2×200 μl) with prewarmed phenol red free DMEM
(§6) Lysotracker® Green DND-26 was diluted according to manufacturers indications (1 mM stock) and further diluted to twice the working concentration in DMEM (10% FBS, 1% P/S). For use for single colour staining, this was diluted with DMEM (10% FBS, 1% P/S) to a final concentration of 1 μM. When it was used for two colour staining with photosensitisers, a 2 μM solution was twice diluted in photosensitiser solution to give a 1 μM final concentration.
The cells were incubated for 15 mins at 4° C. and a further 30 mins at 37° C. before replacing with fresh medium and imaging.
as §6, with “MitoTracker®” for “Lysotracker®”, “Green” for “Green DND-26”
The cells were incubated for 15 mins at 4° C. and a further 1 hr at 37° C. before replacing with fresh medium and imaging.
ER-Tracker™ Green (BODIPY® FL glibenclamide) was diluted according to manufacturer's indications (1 mM stock) and further diluted to twice the working concentration in HBSS buffer (+2% HEPES). For use for single colour staining, this was diluted with HBSS (+2% HEPES) to a final concentration of 3 μM. When it was used for two colour staining with photosensitisers, a 6 μM solution was twice diluted in photosensitiser solution to give a 3 μM final concentration.
The cells were incubated for 15 mins at 4° C. and a further 1 hr at 37° C. before replacing with fresh buffer and imaging.
Bodipy® FL C5-ceramide complexed to BSA was diluted according to manufacturer's indications (0.5 mM stock) and further diluted to twice the working concentration in HBSS buffer (+2 HEPES). For use for single colour staining, this was diluted with HBSS (+2% HEPES) to a final concentration of 5 μM. When it was used for two colour staining with photosensitisers, a 10 μM solution was twice diluted in photosensitiser solution to give a 5 μM final concentration. The cells were incubated for 15 mins at 4° C. and a further 30 mins at 37° C. before washing with cold HBSS/HEPES (3×100 μl) and replacing with either HBSS/HEPES or photosensitiser solution and incubating at 37° C. for a further 30 mins before replacing with fresh buffer and imaging.

[3] = reference value of PPa in toluene; cited from earlier work
[4] = Skin photosensitivity in a murine model; assay type: in vivo; details: laser on the skin after 1 hour, monitored over 4 days, scale of 1-4
Procedure: FIG. 24: Skin photosensitivity of Foscan compared to compound II. Photosensitisers were administered at t=0 hrs and a laser shone on the skin after 1 hour. The skin reaction was followed over time and the results were plotted according to the scale shown.
Skin photosensitivity is an important issue to be resolved in PDT. […] In a murine model, Foscan was administered at clinical doses (ref 109) and compared to compound 11 and a photo-immunoconjugate of compound 11. Skin photosensitivity was monitored over 4 days by observation according to a scale of 1-4 (FIG. 24).

[5] = background statement; cited from earlier work
[6] = Solubility in water or buffer (observations); assay type: physicochemical

For “Pyropheophorbide-a [PPa, reference compound]”, the “τΔ, singlet oxygen lifetime” value [1] was 30 μs, the IC50 (KB) was 1.2 ± 0.4 µM and the IC50 (SKOV3) was 14.5 ± 3.2 µM. The “level in tissues (biodistribution)” value ([2]; % of radioactive material injected per gram of tissue, over 24 hour) was “high levels in all major tissues”, the blood clearance [2] was “resides in the blood for a long time; also recorded: very slow” and the tumour uptake (SKOV3 tumour) was “high”. The “golgi localisation (co-localisation with Bodipy ceramide)” value (SKOV3 cells) was “significant yellow staining”, the “mitochondrial localisation (co-localisation with Mito-tracker)” value (SKOV3 cells) was “significant yellow staining” and the “lysosomal localisation (co-localisation with Lyso-tracker)” value (SKOV3 cells) was “insignificant yellow staining”. For the same compound, the “φf, fluorescence quantum yield” value [3] was 0.3 and the “φΔ, singlet oxygen quantum yield” value [3] was 0.5.
In the case of `Oc1cccc(-c2c3nc(c(-c4cccc(O)c4)c4ccc([nH]4)c(-c4cccc(O)c4)c4nc(c(-c5cccc(O)c5)c5ccc2[nH]5)CC4)C=C3)c1` [Foscan, reference compound], the skin photosensitivity [4] is given as “significant skin sensitivity” and the “skin photosensitivity (duration)” value [5] is given as “about 2 weeks”.
With `CCC1=C(C)c2cc3[nH]c(c(C)c3CC)c(C#CCCCC(=O)O)c3nc(c4c5[nH]c(cc1n2)c(C)c5C(=O)C4)[C@@H](CCC(=O)OCc1cc(OCCOCCOCCOC)c(OCCOCCOCCOC)c(OCCOCCOCCOC)c1)[C@@H]3C` [compound 10, Meso 5-Ethynylhexanoic acid pyropheophorbide a-3,4,5-(triethylene glycolmonomethylether) benzyl ester] the “τΔ, singlet oxygen lifetime” value [1] was 30 μs, the “φΔ, singlet oxygen quantum yield” value [1] was 0.56 and the “φf, fluorescence quantum yield” value [1] was 0.26.
With “Manganese(III)-5-ethynyl hexynoic acid pyropheophorbide a-3,4,5-(triethylnene glycol monomethyl ether) benzyl ester [compound 57]” the solubility in water [6] was “water soluble”.
In the case of “Meso pyropheophorbide a-3,4,5-(triethylene glycol monmethylether) 3-devinyl-3-carboxybenzyl-3,4,5-(triethylene glycol monomethylether) pyropheophorbide a [compound 38]”, the solubility in water [6] is reported as “highly aqueous soluble”.
In the case of `CCC1=C(C)c2cc3[nH]c(c(C)c3CC)c(-c3cc[n+](CCOCCOCCOC)cc3)c3nc(c4c5[nH]c(cc1n2)c(C)c5C(=O)C4)[C@@H](CCC(=O)O)[C@@H]3C` [compound 31C, 3-devinyl-20-(4-triethyleneoxidepyridinium) pyropheophorbide-a chloride], the “τΔ, singlet oxygen lifetime” value [1] is reported as 30 μs, the “φΔ, singlet oxygen quantum yield” value [1] is reported as 0.73 and the “φf, fluorescence quantum yield” value [1] is reported as 0.15. The IC50 (KB; Homo sapiens, KB) was 24.7 ± 11.7 µM, the IC50 (SKOV3; Homo sapiens, SK-OV-3) was 260 ± 31 µM and the blood clearance [2] was “clears more rapidly than the PPa-PEG”. The “golgi localisation (co-localisation with Bodipy ceramide)” value (SKOV3 cells) was “very little yellow staining”, the “mitochondrial localisation (co-localisation with Mito-tracker)” value (SKOV3 cells) was “very little yellow staining” and the “lysosomal localisation (co-localisation with Lyso-tracker)” value (SKOV3 cells) was “significant yellow staining”. The “ER localisation (co-localisation with ER-tracker)” value (SKOV3 cells; FIG. 23) was “no yellow staining” and the “intracellular localisation (intrinsic fluorescence)” value (SKOV3 cells; no co-stain, FIG. 19) was “more punctuate staining pattern indicative of endosomal (aqueous compartment) localisation”.
In the case of “N-Bis-[3-(trimethylamino)propyl]-meso 5-Bromopyropheophorbide a amide diiodide [compound 19]”, the solubility in water [6] is reported as “readily soluble in water and methanol”.
